The values below come from patent US20230044427A1, “EVAPORATION RETARDANT MEMBRANE FOR ODORANT COMPOSITIONS” (BASF SE, priority 2020, published 2023).

For series [1] the following is noted: water / 1-octanol; cited from earlier work.
A short description of series [2]: Evaporation cell test: weight loss of volatile compound through coated or uncoated paper. The note with it: 23° C., 50% humidity; for Weight loss of volatile compound through uncoated paper V2: uncoated paper V2, no coating. Format: physicochemical. As to the method:
The test was carried out according to the method described by Diehl, H. Pfeiffer, A.-M, Seyffer H., (2014), New testing method for functional barriers, International Paperworld IPW 8-11. All tests were carried out in a climate chamber at 23° C. and 50% humidity.
For this, circular specimens were cut from the paper coated with the respective coating. The specimen was placed in the holder of the evaporation cell. A defined amount of the respective volatile compound was filled into the chamber of the evaporation cell, and the chamber was closed by the holder and immediately weighed thereafter to an accuracy of 0.1 mg. The closed evaporation cell was reweighed after 1 h, 4 h, 1 d and 2 d.

For series [3] the following is noted: vapor pressure at 25° C.; cited from earlier work.
Setting [4] is: paper 1, Polymer dispersion 1, thickness 10 g/m^2, coverage 50%.
Where [5] appears, read: paper 1, Polymer dispersion 2, thickness 10 g/m^2, coverage 50%.
Setting [6] is: paper 2, Polymer dispersion 1, thickness 15 g/m^2, coverage 30%.
[7] abbreviates: paper 2, Polymer dispersion 2, thickness 5 g/m^2, coverage 70%.
Where [8] appears, read: paper V1, Polymer dispersion 1, thickness 10 g/m^2, coverage 100%.
Setting [9] is: paper V1, Polymer dispersion 2, thickness 10 g/m^2, coverage 100%.

For `CC(C)=CCCC(C)CC=O` (stereo not drawn) [Citronellal], in series [1], the “Log Pow” value is given as 3.8. Further, the “Weight loss of volatile compound through respective coating of paper 1” value (from here on “Weight loss … of paper 1”) in series [2] (setting [4]) and in series [2] (setting [5]) was 2 g/(m^2d) throughout. The results for the “Weight loss of volatile compound through respective coating of paper 2” value (from here on “Weight loss … of paper 2”) in series [2] (setting [6]) and in series [2] (setting [7]) were 5 g/(m^2d) and 4 g/(m^2d), respectively. Moreover, the “Weight loss of volatile compound through respective coating of paper V1” value (from here on “Weight loss … of paper V1”) in series [2] (setting [8]) and in series [2] (setting [9]) was 1 g/(m^2d) each time. The “Weight loss of volatile compound through uncoated paper V2” value in series [2] was 950 g/(m^2d). Besides, the “VP(25° C.)” value in series [3] was 0.5 mbar.
In the case of `CCOC(C)=O` [Ethyl acetate], in series [1], the “Log Pow” value is on record as 0.9. The “Weight loss … of paper 1” value in series [2] (setting [4]) is given as 1320 g/(m^2d); in series [2] (setting [5]), 1300 g/(m^2d). Further, the “Weight loss … of paper 2” value is 3300 g/(m^2d) in series [2] (setting [6]) and 653 g/(m^2d) in series [2] (setting [7]). Besides, the “Weight loss … of paper V1” value in series [2] (setting [8]) is 660 g/(m^2d); in series [2] (setting [9]), 650 g/(m^2d). In addition, the “Weight loss of volatile compound through uncoated paper V2” value in series [2] is recorded as 2450 g/(m^2d). The “VP(25° C.)” value in series [3] is reported as 7 mbar.
As for `CCCCCC=O` [Hexanal], the “Log Pow” value in series [1] is reported as 1.9. Besides, the “Weight loss … of paper 1” value in series [2] (setting [4]) is on record as 291 g/(m^2d); in series [2] (setting [5]) it was 702 g/(m^2d). The “Weight loss … of paper 2” value was 725 g/(m^2d) in series [2] (setting [6]) and 353 g/(m^2d) in series [2] (setting [7]). The results for the “Weight loss … of paper V1” value in series [2] (setting [8]) and in series [2] (setting [9]) were 145 g/(m^2d) and 350 g/(m^2d), respectively. In series [2], the “Weight loss of volatile compound through uncoated paper V2” value is given as 3750 g/(m^2d). Moreover, the “VP(25° C.)” value in series [3] is 15 mbar.
For the compound `CC(=O)OCCC(C)C` [Isoamyl acetate], the “Log Pow” value in series [1] is 2.5. In addition, the “Weight loss … of paper 1” value in series [2] (setting [4]) is 120 g/(m^2d); in series [2] (setting [5]), 204 g/(m^2d). Also, the “Weight loss … of paper 2” value is 295 g/(m^2d) in series [2] (setting [6]) and 103 g/(m^2d) in series [2] (setting [7]). For the same compound, the “Weight loss … of paper V1” value is 60 g/(m^2d) in series [2] (setting [8]) and 100 g/(m^2d) in series [2] (setting [9]). In series [2], the “Weight loss of volatile compound through uncoated paper V2” value is 2100 g/(m^2d). Besides, the “VP(25° C.)” value in series [3] is 5 mbar.
As for `CC(=O)OCC(C)C` [Isobutyl acetate], the “Log Pow” value in series [1] is listed as 1.8. In addition, the figures for the “Weight loss … of paper 1” value in series [2] (setting [4]) and in series [2] (setting [5]) were 300 g/(m^2d) and 320 g/(m^2d), respectively. The “Weight loss … of paper 2” value is 749 g/(m^2d) in series [2] (setting [6]) and 163 g/(m^2d) in series [2] (setting [7]). The results for the “Weight loss … of paper V1” value in series [2] (setting [8]) and in series [2] (setting [9]) were 150 g/(m^2d) and 160 g/(m^2d), respectively. Further, in series [2], the “Weight loss of volatile compound through uncoated paper V2” value is on record as 3500 g/(m^2d). In addition, the “VP(25° C.)” value in series [3] is reported as 20 mbar.
On to `C=C(C)[C@H]1CC=C(C)CC1` [Limonene], for which the “Log Pow” value in series [1] is 4.6. Further, the “Weight loss … of paper 1” value in series [2] (setting [4]) is given as 2 g/(m^2d); in series [2] (setting [5]), 100 g/(m^2d). Moreover, the “Weight loss … of paper 2” value in series [2] (setting [6]) is 5 g/(m^2d); in series [2] (setting [7]), 53 g/(m^2d). For the same compound, the “Weight loss … of paper V1” value in series [2] (setting [8]) is on record as 1 g/(m^2d); in series [2] (setting [9]) it was 50 g/(m^2d). Also, the “Weight loss of volatile compound through uncoated paper V2” value in series [2] is given as 1750 g/(m^2d). Besides, the “VP(25° C.)” value in series [3] is 2 mbar.
Turning to `CCCCCCC` [n-Heptane], in series [1], the “Log Pow” value is 4.8. In addition, the “Weight loss … of paper 1” value in series [2] (setting [4]) is 2 g/(m^2d); in series [2] (setting [5]), 1200 g/(m^2d). Also, the “Weight loss … of paper 2” value in series [2] (setting [6]) was 5 g/(m^2d); in series [2] (setting [7]) it was 603 g/(m^2d). Also, the “Weight loss … of paper V1” value in series [2] (setting [8]) was 1 g/(m^2d); in series [2] (setting [9]) it was 600 g/(m^2d). Also, in series [2], the “Weight loss of volatile compound through uncoated paper V2” value was 4500 g/(m^2d). Also, the “VP(25° C.)” value in series [3] is given as 61 mbar.
With `CCCCCC` [n-Hexane], the “Log Pow” value in series [1] was 3.9. In addition, the entries for the “Weight loss … of paper 1” value in series [2] (setting [4]) and in series [2] (setting [5]) were 4 g/(m^2d) and 1900 g/(m^2d), respectively. The “Weight loss … of paper 2” value is 10 g/(m^2d) in series [2] (setting [6]) and 953 g/(m^2d) in series [2] (setting [7]). Further, the “Weight loss … of paper V1” value in series [2] (setting [8]) is 2 g/(m^2d); in series [2] (setting [9]) it was 950 g/(m^2d). Also, the “Weight loss of volatile compound through uncoated paper V2” value in series [2] is given as > 4000 g/(m^2d). In addition, the “VP(25° C.)” value in series [3] is recorded as 201 mbar.
